The values below come from ChEMBL document CHEMBL1201862, “PubChem BioAssay data set” (2004).

Among the test systems are NCI/ADR-RES; HCT-15; SF-268; DU-145; NCI-H226; NCI-H460; HOP-92; SK-MEL-5; SF-295; PC-3; A549; MCF7; SN12C; U-251; UO-31; T47D; SW-620; IGROV-1; LOX IMVI; RPMI-8226.
Holding throughout (test): NCI tumour cell line growth inhibition, 48 h

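Briefly, cells in 96-well plates were exposed to five compound concentrations for 48 h, and endpoints were estimated by linear interpolation. At the GI50, growth is halved.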 Activity calls are given as the source filed them. No stated cut-off is given here; in the data, active = GI50 up to about 1.1 µM and inactive = higher. Where only a bound is given, the exact number is not on record here.

In the case of `c1csc(-c2cc(-c3ccsc3)c(-c3cccs3)s2)c1`, the GI50 in the experiment on NCI/ADR-RES was > 100 µM (inactive); in the experiment on HCT-15, 44.1 µM; in the experiment with SF-268, > 100 µM (inactive); with DU-145, > 100 µM (inactive); with NCI-H226, > 100 µM (inactive); in the experiment on NCI-H460, 43.5 µM (inactive). For the same compound, the GI50 was 32.2 µM (inactive) in the experiment with HOP-92; 53.6 µM (inactive) in the experiment with SK-MEL-5; > 100 µM (inactive) in the experiment on SF-295; > 100 µM (inactive) in the experiment with PC-3; 92.7 µM (inactive) in the experiment with A549; 6.75 µM (inactive) in the experiment on MCF7. For the same compound, the GI50 in the experiment on SN12C is > 100 µM (inactive); in the experiment with U-251, 81.3 µM (inactive); with UO-31, 76.2 µM (inactive); with T47D, 2.7 µM (inactive); in the experiment with SW-620, 74.3 µM (inactive).

On to `C1=N\c2ccc(cc2)/N=C\c2ccccc2OCc2cccc(n2)COc2ccccc2/1`, for which the GI50 was > 100 µM (inactive) in the experiment on NCI/ADR-RES; 75.2 µM (inactive) in the experiment with IGROV-1; over 100 µM with HCT-15; > 100 µM (inactive) with DU-145; > 100 µM (inactive) with LOX IMVI; > 100 µM (inactive) in the experiment on NCI-H226. For the same compound, the GI50 with NCI-H460 is > 100 µM (inactive); in the experiment with HOP-92 it was > 100 µM (inactive); in the experiment with SK-MEL-5, > 100 µM (inactive); with SF-295 it was 76.9 µM (inactive); with PC-3 it was > 100 µM (inactive); in the experiment on A549 it was > 100 µM (inactive). The GI50 in the experiment with MCF7 was > 100 µM (inactive); with SN12C it was > 100 µM (inactive); in the experiment with U-251, 45 µM (inactive); in the experiment on UO-31 it was > 100 µM (inactive); in the experiment on T47D it was > 100 µM (inactive); with SW-620, > 100 µM (inactive).

Regarding `COC(=O)/C=C(\S/C(=C(/c1ccc(OC)cc1)n1cc(C(=O)OC)c(C(=O)OC)n1)c1ccc(OC)cc1)C(=O)OC`, the GI50 in the experiment on NCI/ADR-RES is 28.7 µM (inactive); in the experiment on IGROV-1, 6.4 µM (inactive); with HCT-15, 6.43 µM; in the experiment with SF-268, 17.1 µM (inactive); with DU-145 it was 15.6 µM (inactive); in the experiment with LOX IMVI it was 9.35 µM (inactive). Moreover, the GI50 in the experiment on NCI-H226 is 48.6 µM (inactive); with RPMI-8226, 38.3 µM (inactive); in the experiment with NCI-H460, 35.9 µM (inactive); in the experiment with SK-MEL-5 it was 35.5 µM (inactive); with SF-295, > 100 µM (inactive); with PC-3, 26.6 µM (inactive). For the same compound, the GI50 was 77.6 µM (inactive) in the experiment on A549; 5.62 µM (inactive) with MCF7; 15.5 µM (inactive) with SN12C; 33.6 µM (inactive) in the experiment with U-251; 4.14 µM (inactive) with UO-31; 3.02 µM (inactive) in the experiment with T47D. In addition, the GI50 in the experiment on SW-620 was 7.06 µM (inactive).

As to `O=C(NNC(=O)c1cc2ccccc2[nH]1)c1cc2ccccc2[nH]1`, the GI50 in the experiment on NCI/ADR-RES was > 100 µM (inactive); with IGROV-1 it was > 100 µM (inactive); in the experiment with HCT-15, over 100 µM; in the experiment on SF-268, > 100 µM (inactive); in the experiment on DU-145, > 100 µM (inactive); in the experiment with LOX IMVI, > 100 µM (inactive). Further, the GI50 with NCI-H226, in the experiment with RPMI-8226, in the experiment on NCI-H460, with SK-MEL-5, with SF-295 and in the experiment on PC-3 was > 100 µM (inactive) in each case. The GI50 in the experiment on A549, in the experiment with MCF7, in the experiment on SN12C, with U-251, with UO-31 and with T47D was > 100 µM (inactive) in each case. In the experiment on SW-620, the GI50 was > 100 µM (inactive).
